Results taken from patent US20230348456A1, “QUINAZOLINONES, PHARMACEUTICAL COMPOSITIONS CONTAINING THE SAME, AND METHODS OF USING THE SAME” (Repare Therapeutics Inc., priority 2022, published 2023).

Target: recombinant human Myt1 (Homo sapiens (Human), UniProt Q99640)
Assay: Myt1 enzymatic assay (ADP-Glo kinase assay)
Format: biochemical
Conditions: recombinant human Myt1 18 nM, ATP 10 μM
Protocol: Detection of Myt1 kinase activity utilized a recombinant human Myt1 kinase assay measuring the hydrolysis of ATP using a commercially available ADP-Glo Assay (ADP-Glo™ Kinase Assay from Promega, 10 000 assays, #V9102). Briefly, 5 μL recombinant human Myt1 (full length PKMYT1 recombinant human protein expressed in insect cells from Thermo Fisher #A33387; ˜80% purity) was prepared in reaction buffer (70 mM HEPES, 3 mM MgCl2, 3 mM MnCl2, 50 μg/ml PEG 20000, 3 μM Na-orthovanadate, 1.2 mM DTT) and added to 384 well white polystyrene, flat bottom well, non-treated, microplate (Corning #3572). After this, 5 μL of compounds (diluted in reaction buffer to 0.5% DMSO) was added to the microplate and the plate was spun briefly and incubated at 22° C. for 15 minutes. Ultra-Pure Adenosine Triphosphate (ATP) solution (ADP-Glo kit from Promega) was diluted in reaction buffer and 5 μL was added to the microplate, spun down briefly and incubated for 60 minutes at 30° C. The final Myt1 enzyme concentration was 18 nM and the final ATP concentration was 10 μM. After the 60-minute incubation, 15 μL of ADP-Glo reagent was added and the plate was spun briefly and sealed and incubated in the dark for 40 minutes at 22° C. Following this, 30 μL of kinase detection reagent was added per well and the plate was spun briefly, sealed and incubated for 45-60 minutes at 22° C. in the dark. Luminescence was read using the Envision (250 ms integration). The IC50 and the % max inhibition were calculated for each inhibitor compound tested.

Chain of recombinant human Myt1 (Q99640 whole entry): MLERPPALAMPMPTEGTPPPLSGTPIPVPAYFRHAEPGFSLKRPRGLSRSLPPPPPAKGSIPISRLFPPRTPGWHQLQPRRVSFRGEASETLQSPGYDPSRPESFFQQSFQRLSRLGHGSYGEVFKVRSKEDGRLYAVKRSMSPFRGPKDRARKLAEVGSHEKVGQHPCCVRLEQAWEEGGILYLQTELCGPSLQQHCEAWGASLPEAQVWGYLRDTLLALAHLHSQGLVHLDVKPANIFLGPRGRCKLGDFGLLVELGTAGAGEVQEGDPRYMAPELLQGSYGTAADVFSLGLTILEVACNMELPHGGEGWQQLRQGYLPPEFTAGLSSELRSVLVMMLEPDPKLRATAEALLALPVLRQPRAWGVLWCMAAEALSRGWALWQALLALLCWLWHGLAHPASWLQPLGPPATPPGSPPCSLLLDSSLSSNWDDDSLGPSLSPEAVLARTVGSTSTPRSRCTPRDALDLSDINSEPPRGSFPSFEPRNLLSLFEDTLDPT

Structure (SMILES)	IC50
Nc1c(-c2cccc3[nH]ncc23)ccc2nc[nH]c(=O)c12 [Compound 109]	122 nM
Nc1c(-c2cccc3[nH]ncc23)cc(-c2nccs2)c2nc(-c3cccc(CN4CCOCC4)c3)[nH]c(=O)c12 [Compound 40]	18 nM
Cc1ccc(O)cc1-c1cc(Br)c2nc[nH]c(=O)c2c1N [Compound 138]	41 nM
N#Cc1ccc(-c2nc3c(-c4nccs4)cc(-c4cccc5[nH]ncc45)c(N)c3c(=O)[nH]2)cc1 [Compound 5]	89 nM
Nc1c(-c2cccc3[nH]ncc23)cc(-c2ccccn2)c2nc[nH]c(=O)c12 [Compound 82]	35 nM
Nc1c(-c2cccc3[nH]ncc23)cc(-n2cc(C(F)(F)F)cn2)c2nc(-c3ccncc3)[nH]c(=O)c12 [Compound 87]	100 nM
Cc1ccc(O)cc1-c1cc(-c2ccccn2)c2nc[nH]c(=O)c2c1N [Compound 137]	51 nM
Nc1c(-c2cccc3[nH]ncc23)cc(-n2cc3c(n2)CCC3)c2nc(-c3ccncc3)[nH]c(=O)c12 [Compound 86]	18 nM
Nc1c(-c2cccc3[nH]ncc23)cc(-c2nc(C(F)(F)F)cs2)c2nc[nH]c(=O)c12 [Compound 119]	55 nM
Cc1ccc(O)cc1-c1cc(-c2ncc(C(=O)O)s2)c2c(c1N)C(=O)NC2 [Compound 148]	1860 nM
Nc1c(-c2cccc3[nH]ncc23)cc(-c2ncc(Cl)s2)c2nc[nH]c(=O)c12 [Compound 114]	28 nM
Cc1ccc(O)cc1-c1cc(-c2nccs2)c2c(c1N)C(=O)NC2 [Compound 93]	22 nM
Cc1ccc(O)cc1-c1cc(Br)c2c(c1N)C(=O)NC2 [Compound 69]	864 nM
Nc1c(-c2cccc3[nH]ncc23)cc(-c2ncc(C(F)(F)F)s2)c2nc[nH]c(=O)c12 [Compound 115]	109 nM
Cc1ccc(O)cc1-c1cc(-c2nc(C(=O)O)cs2)c2c(c1N)C(=O)NC2 [Compound 162]	182 nM
Nc1c(-c2cccc3[nH]ncc23)cc(-c2ccc(C(F)(F)F)cc2)c2nc[nH]c(=O)c12 [Compound 125]	839 nM
Nc1c(-c2cccc3[nH]ncc23)cc(-c2ncc(F)cn2)c2nc[nH]c(=O)c12 [Compound 120]	189 nM
Cc1ccc(O)cc1-c1cc(-c2ncc(NC(=O)C3CC3)s2)c2c(c1N)C(=O)NC2 [Compound 142]	2240 nM
Nc1c(-c2cccc3[nH]ncc23)cc(-c2cccc(OCC(=O)O)c2)c2nc[nH]c(=O)c12 [Compound 94]	46 nM
Cc1ccc(O)cc1-c1ccc2c(c1N)C(=O)NC2 [Compound 85]	16000 nM
CNC(=O)c1cnc(-c2cc(-c3cc(O)ccc3C)c(N)c3c2CNC3=O)s1 [Compound 150]	163 nM
Nc1c(-c2cccc3[nH]ncc23)cc(-c2nccs2)c2nc(Cc3ccccc3)[nH]c(=O)c12 [Compound 46]	> 2000 nM
Cc1ccc(O)cc1-c1cc(-c2nc(NC(=O)C3CCOCC3)cs2)c2c(c1N)C(=O)NC2 [Compound 144]	930 nM
Cc1ccc(O)cc1-c1cc(-c2nc(C(=O)N(C)C)cs2)c2c(c1N)C(=O)NC2 [Compound 151]	61 nM
CN1CC=C(c2cc(-c3cccc4[nH]ncc34)c(N)c3c(=O)[nH]c(-c4ccncc4)nc23)CC1 [Compound 56]	7 nM
Cc1ccc(O)cc1-c1cc(-c2nc(C(=O)NC(C)C)cs2)c2c(c1N)C(=O)NC2 [Compound 158]	55 nM
Nc1c(-c2cccc3[nH]ncc23)cc(-c2nccs2)c2nc(Oc3ccccc3)[nH]c(=O)c12 [Compound 165, 5-amino-6-(1H-indazol-4-yl)-2-phenoxy-8-(thiazol-2-yl)quinazolin-4(3H)-one]	596 nM
Nc1c(-c2cccc3[nH]ncc23)cc(-c2cccnn2)c2nc[nH]c(=O)c12 [Compound 131]	70 nM
Cc1ccc(O)cc1-c1cc(-c2ncc(Cl)s2)c2c(c1N)C(=O)NC2 [Compound 156]	576 nM
Nc1c(-c2cccc3[nH]ncc23)cc(Br)c2nc(-c3ccc(NC4COC4)nc3)[nH]c(=O)c12 [Compound 35]	29 nM

More lines, in order of falling IC50, values ahead:

IC50	Structure (SMILES)
15 nM	Nc1c(-c2cccc3[nH]ncc23)cc(-c2nccs2)c2nc(-c3ccnc(N4CCNCC4)c3)[nH]c(=O)c12 [Compound 31]
15 nM	Nc1c(-c2cccc3[nH]ncc23)cc(-c2ccc(F)s2)c2nc[nH]c(=O)c12 [Compound 117]
13 nM	Cc1ccc2[nH]ncc2c1-c1cc(-c2cccc(OCCN3CCCC3)n2)c2nc[nH]c(=O)c2c1N [Compound 89]
13 nM	Nc1c(-c2cccc3[nH]ncc23)cc(-c2nc(Cl)cs2)c2nc[nH]c(=O)c12 [Compound 116]
12 nM	Cc1ccc(O)cc1-c1cc(-c2nccs2)c2cc[nH]c(=O)c2c1N [Compound 164, 8-amino-7-(5-hydroxy-2-methyl-phenyl)-5-thiazol-2-yl-2H-isoquinolin-1-one]
11 nM	Cc1ccc2[nH]ncc2c1-c1cc(-c2cccc(OCc3nccn3C)n2)c2nc[nH]c(=O)c2c1N [Compound 90]
11 nM	Cc1ccc2[nH]ncc2c1-c1cc(-c2cccc(OC[C@@H]3COCCO3)n2)c2nc[nH]c(=O)c2c1N [Compound 101]
10 nM	Cc1ccc2[nH]ncc2c1-c1cc(-c2cccc(OCc3ncccn3)n2)c2nc[nH]c(=O)c2c1N [Compound 102]
10 nM	Nc1c(-c2cccc3[nH]ncc23)cc(-c2nccs2)c2nc(-c3ccnc(N4CCOCC4)c3)[nH]c(=O)c12 [Compound 15, 5-amino-6-(1H-indazol-4-yl)-2-(2-morpholinopyridin-4-yl)-8-(thiazol-2-yl)quinazolin-4(3H)-one]
10 nM	Nc1c(-c2cccc3[nH]ncc23)cc(-c2cccc(OCc3ncco3)c2)c2nc[nH]c(=O)c12 [Compound 95]
10 nM	Nc1c(-c2cccc3[nH]ncc23)cc(-c2nccs2)c2nc(-c3cccnn3)[nH]c(=O)c12 [Compound 41]
8 nM	Nc1c(-c2cccc3[nH]ncc23)cc(-n2ccc(C3CCOCC3)n2)c2nc(-c3cccnc3)[nH]c(=O)c12 [Compound 76]
6 nM	Nc1c(-c2cccc3[nH]ncc23)cc(-c2cccc(=O)[nH]2)c2nc(-c3cccnc3)[nH]c(=O)c12 [Compound 80]
6 nM	Nc1c(-c2cccc3[nH]ncc23)cc(-n2cc(F)cn2)c2nc(-c3cccnc3)[nH]c(=O)c12 [Compound 75]
5 nM	Cc1ccc2[nH]ncc2c1-c1cc(-c2cccc(OCc3ncco3)n2)c2nc[nH]c(=O)c2c1N [Compound 91]
5 nM	Nc1c(-c2cccc3[nH]ncc23)cc(Br)c2nc(-c3ccc(N4CCN(C5CC5)C(=O)C4)nc3)[nH]c(=O)c12 [Compound 11]

IC50	Structure (SMILES)
5 nM	Nc1c(-c2cccc3[nH]ncc23)cc(Br)c2nc(-c3ccc(N4CCN(C5CC5)CC4)nc3)[nH]c(=O)c12 [Compound 26]
5 nM	Cc1ccc2[nH]ncc2c1-c1cc(-c2nccs2)c2nc[nH]c(=O)c2c1N [Compound 98]
5 nM	Nc1c(-c2cccc3[nH]ncc23)cc(-c2cnn(C3COC3)c2)c2nc(-c3cccnc3)[nH]c(=O)c12 [Compound 100]
5 nM	Nc1c(-c2cccc3[nH]ncc23)cc(-c2cccc(OCCN3CCOCC3)c2)c2nc(-c3ccncc3)[nH]c(=O)c12 [Compound 52]
5 nM	Cc1ccc2[nH]ncc2c1-c1cc(-c2cccc(OCCN3CCOCC3)n2)c2nc[nH]c(=O)c2c1N [Compound 88]
4 nM	Nc1c(-c2cccc3[nH]ncc23)cc(-c2cccc(OC[C@H]3CCCO3)n2)c2nc(-c3ccncc3)[nH]c(=O)c12 [Compound 70]
4 nM	Nc1c(-c2cccc3[nH]ncc23)cc(-c2cnn(C(F)F)c2)c2nc(-c3ccncc3)[nH]c(=O)c12 [Compound 73]
4 nM	Nc1c(-c2cccc3[nH]ncc23)cc(-c2cnn(C3CCOCC3)c2)c2nc(-c3cccnc3)[nH]c(=O)c12 [Compound 81]
4 nM	Nc1c(-c2cccc3[nH]ncc23)cc(Br)c2nc(-c3ccc(NCCN4CCCC4)nc3)[nH]c(=O)c12 [Compound 23]
3 nM	Cc1ccc(O)c(C)c1-c1cc(-c2ccn(C3CC3)n2)c2nc(-c3ccncc3)[nH]c(=O)c2c1N [Compound 135]
3 nM	Nc1c(-c2cccc3[nH]ncc23)cc(-c2cnn(C3CC3)c2)c2nc(-c3ccncc3)[nH]c(=O)c12 [Compound 72]
3 nM	COCCNc1ccc(-c2nc3c(Br)cc(-c4cccc5[nH]ncc45)c(N)c3c(=O)[nH]2)cn1 [Compound 29]
3 nM	Nc1c(-c2cccc3[nH]ncc23)cc(Br)c2nc(-c3ccc(N4CCNCC4)nc3)[nH]c(=O)c12 [Compound 10]
3 nM	Cc1ccc(O)c(C)c1-c1cc(C2CC2)c2nc(-c3ccncc3)[nH]c(=O)c2c1N (single isomer, unassigned) [Compound 22, 5-amino-8-cyclopropyl-6-(3-hydroxy-2,6-dimethyl-phenyl)-2-(4-pyridyl)-3H-quinazolin-4-one]
2 nM	Cc1ccc(O)c(C)c1-c1cc(-c2cnn(C3CC3)c2)c2nc(-c3ccncc3)[nH]c(=O)c2c1N (atropisomer, axis not shown) [Compound 27]
2 nM	Nc1c(-c2cccc3[nH]ncc23)cc(-c2cccc(OCCN3CCCC3)n2)c2nc(-c3ccncc3)[nH]c(=O)c12 [Compound 54]
